Measurements published in PMC7657664 (Harmful algae, 2020).
Read-outs that look alike come from different tables or passages of the source.

Experiments:
[1] = target: T1, Torpedo-nAChR of embryonic muscle type (α1)2β1γδ (Torpedo marmorata, UniProt P02711+Q6S3H8+Q6S3H9); experiment: microplate receptor-binding assay, competition with biotin-α-bungarotoxin
[2] = target: T1, Torpedo-nAChR of embryonic muscle type (α1)2β1γδ; experiment: as above; remark: listed apart in the source

Compound	IC50 [1] [µM]	IC50 [2] [µM]
28-O-palmitoyl ester of pinnatoxin-G [Palmitoyl-PnTX-G]	13.1	
C=CC1=C[C@@H]2[C@@H]3O[C@]4(C[C@H]5CCC[C@@]6(CC[C@@]7(O[C@@H](CC[C@@]7(C)O)CC(=C)CCCC7=NC[C@H](C)[C@@H](C)C[C@@]72CC1)O6)O5)C[C@@H](C)[C@@H](O)[C@H]3O4 [PnTX-G, pinnatoxin-G]		0.0186
